Data set [1] deals with phrenic nerve-hemidiaphragm preparation. Put plainly: In vitro muscle relaxing effect on the isolated phrenic nerve-hemidiaphragm preparation of rats. Set-up: species or system rat. As to conditions: for IC90: read-out: ED90 rat.
Data set [2] has the same test system. Briefly: In vitro muscle relaxing effect on the isolated phrenic nerve-hemidiaphragm preparation of guinea-pigs. The arrangement: species or system guinea-pig. As to conditions: for IC90: read-out: ED90 guinea-pig.
For data set [3] the following is noted: background; cited from earlier work.
For data set [4], the system named is anterior tibial muscle (musculus tibialis anterior). Put plainly: In vivo effect on the anterior tibial muscle of the guinea-pig. As to conditions: for time for the 75% neuromuscular block to decrease to 25%: 2×ED90 doses; for ED50 / ED90: Cavia porcellus, iv; for Clinical duration / Onset time: 2 × ED90 dose; for Clinical duration / Recovery 25%-75% / Onset time: guinea-pig, mean ± SEM (n = 4); for Onset time: time required to 95% block.

The test system of another data set is neuromuscular block. Put plainly: Comparison of the effects of 2 × ED90 doses in beagle dog. The following applies: mean ± SEM; for Recovery 0-75% / Recovery index / Time to max. recovery: P <0.02; for T4/T1 at max. recovery: P <0.05; for Clinical duration / Onset time / Time to 80% block / ED90 / ED95: n = 8; for Clinical duration / Onset time: P <0.001; for Time to 80% block: P <0.01; for ED90 / ED95: Canis lupus familiaris, beagle dog. It counts as in vivo. The arrangement: Tetanic fade: unit not given here. An excerpt:
Comparison of the effects of 2 × ED90 doses in beagle dog (no.
animals in parentheses). Mean ± SEM.

Data set [5] has as its system phrenic nerve-hemidiaphragm preparation. Briefly: Reversal of the in vitro neuromuscular block (wash-out, neostigmine, edrophonium). Set-up: species or system rats and guinea-pigs.
The subject of a further data set is vagus nerve. Briefly: Antivagal effect on anesthetized cat.
A further data set has as its system vagus. The following applies: 4×ED90 dose; cited from earlier work.
Setting [6] is: rat, 0.1 Hz, 0.2 ms, supramaximal stimulus, mean ± SEM (n = 4).

We go through five compounds from US5591735A, “Androstane derivatives substituted by a quaternary ammonium group in 16-position, pharmaceutical compositions containing them and process for preparing same” (Marvishi Pharmaceutical Co., Ltd., priority 1992, dated 1997).

Structures can show the parent of a compound that is named as a salt.

In the case of `CC(=O)O[C@H]1C[C@@H]2CC[C@@H]3[C@H](CC[C@@]4(C)[C@H]3C[C@H](N3CC[N+](C)(C)CC3)[C@@H]4OC(C)=O)[C@@]2(C)C[C@@H]1N1CC[N+](C)(C)CC1.[Br-].[Br-]` [Pipecuronium bromide, 4,4'-[3α,17β-bis(acetyloxy)-5α-androstane-2β,16β-diyl]bis[1,1-dimethylpiperazinium]dibromide], the IC90 in data set [1] (setting [6]) is 1500 ± 40 nM. For the same compound, the IC90 in data set [2] (Cavia porcellus, guinea-pig, 0.1 Hz, 0.2 ms, supramaximal stimulus, mean ± SEM (n = 4)) is 80 ± 3 nM. Besides, in data set [3], the “cardiovascular side effects / stability” value is “exceed those of pancuronium bromide or vecuronium bromide”. The “time for the 75% neuromuscular block to decrease to 25%” value (“time … to decrease to 25%” below) in data set [4] (guinea-pigs) came to 60.6 min. Further, in data set [4], it took a dose of 0.004 ± 0.0007 mg/kg to reach the 50% effect level (ED50), the ED90 was determined as 0.006 ± 0.0007 mg/kg, the Clinical duration turned out to be 60.6 ± 9.28 min and the “Recovery 25%-75%” value stood at 24.6 ± 3.71 min. Besides, the Onset time in data set [4] worked out at 1.5 ± 0.08 min.
Consider `CC(=O)O[C@H]1C[C@@H]2CC[C@@H]3[C@H](CC[C@@]4(C)[C@H]3C[C@H]([N+]3(C)CCCCC3)[C@@H]4OC(C)=O)[C@@]2(C)C[C@@H]1N1CCCCC1` [Vecuronium bromide, 1-[3α,17β-bis(acetyloxy)-2β-(1-piperidinyl)androstan-16β-yl]1-methylpiperidinium bromide hydrochloride], for which the IC90 in data set [1] (Rattus norvegicus) came to 8720 ± 380 nM. Also, the IC90 in data set [2] (Cavia porcellus) was found to be 250 ± 10 nM. Moreover, in the data set on neuromuscular block (2 × ED90, beagle dog, n = 4), the “Recovery 0-75%” value was 24.9 ± 3.0 min, the Recovery index amounted to 6.6 ± 1.1 min, the “Time to max. recovery” value is 31.4 ± 4.3 min and the “T4/T1 at max. recovery” value is on record as 71.0 ± 2.9. Besides, in the data set with neuromuscular block (2 × ED90, beagle dog), the Clinical duration is on record as 17.8 ± 1.1 min, the Onset time came to 115.1 ± 8.6 s and the “Time to 80% block” value turned out to be 62.8 ± 4.5 s. Moreover, in the data set on neuromuscular block, the ED90 worked out at 0.0358 ± 0.0009 mg/kg and the ED95 is 0.0379 ± 0.001 mg/kg. In addition, the “cardiovascular side effects / stability” value in data set [3] is given as “lack of cardiovascular side effects”. In data set [4], the ED50 was found to be 0.007 ± 0.0019 mg/kg, the ED90 stood at 0.011 ± 0.002 mg/kg, the Clinical duration stood at 26.6 ± 4.61 min and the “Recovery 25%-75%” value was 9.0 ± 2.35 min. The compound further had an Onset time in data set [4] of 1.3 ± 0.51 min.
For the compound `C=CC[N+]1([C@H]2C[C@H]3[C@@H]4CC[C@H]5C[C@H](OC(C)=O)[C@@H](N6CCC7(CC6)OCCO7)C[C@]5(C)[C@H]4CC[C@]3(C)[C@H]2OC(C)=O)CCCC1.[Br-]` [Example 8, 1-[3α,17β-bis(acetyloxy)-2β-(1,4-dioxa-8-azaspiro[4.5]dec-8-yl)-5α-androstan-16β-yl]-1-(2-propenyl)pyrrolidinium bromide], the IC90 in data set [1] (Rattus norvegicus) was found to be 8370 ± 260 nM. In data set [1] (rat, in vitro), the “neuromuscular blocking (inhibitory) effect compared with known muscle relaxants” value is reported as “of the similar order of magnitude as that of other known, clinically employed muscle relaxants”. Besides, the IC90 in data set [2] (Cavia porcellus) worked out at 900 ± 30 nM. For the same compound, the “neuromuscular blocking (inhibitory) effect compared with known muscle relaxants” value in data set [2] (guinea-pig, in vitro) is listed as “of the similar order of magnitude as that of other known, clinically employed muscle relaxants”. Besides, in the data set with neuromuscular block (2 × ED90, beagle dog, n = 4), the “Recovery 0-75%” value came out at 16.2 ± 0.9 min, the Recovery index is given as 3.4 ± 0.4 min, the “Time to max. recovery” value is on record as 24.4 ± 2.0 min and the “T4/T1 at max. recovery” value turned out to be 91.3 ± 4.8. Besides, in the data set with neuromuscular block (2 × ED90, beagle dog, n = 4, P n.s. (not significant)), the Tetanic fade is reported as 97.5 ± 1.9. For the same compound, in the data set with neuromuscular block (2 × ED90, beagle dog), the Clinical duration was determined as 12.6 ± 0.6 min, the Onset time worked out at 75.3 ± 5.9 s and the “Time to 80% block” value amounted to 48.4 ± 2.9 s. In the data set with neuromuscular block, this compound showed an ED90 of 0.0105 ± 0.0002 mg/kg and an ED95 of 0.0111 ± 0.0002 mg/kg. Also, in data set [5] (in vitro), the onset of action entry is recorded as “rapid” and the reversibility by wash-out entry is on record as “easily reversible by wash-out”. The “antagonism of the effect” value in data set [5] (with neostigmine methyl sulfate or edrophonium chloride) was “could also be antagonized with neostigmine methyl sulfate”. In the data set on vagus nerve (8×ED90 dose), the “block of the vagus” value is on record as “did not block the vagus” and the “inhibition of the effects of electrical stimulation of the vagus on heart rate or blood pressure” value is “did not inhibit the effects of electrical stimulation of this nerve on heart rate or blood pressure”. Besides, in the data set with vagus nerve (in vivo cat experiments), the “change in heart rate or blood pressure on electrical stimulation of the vagus” value is “no significant change in heart rate or blood pressure” and the “effect on the vagus” value is given as “no stimulating effect on the vagus”. The “Decrease in heart rate” value with vagus nerve (vagal stimulation, anesthetized cat, mean ± SEM (n = 4), control 14 ± 1.8) turned out to be 15 ± 2.9%. Moreover, the “Decrease in blood pressure” value with vagus nerve (vagal stimulation, anesthetized cat, mean ± SEM (n = 4), control 40.0 ± 8.1) was determined as 32.0 ± 6.6 Hgmm. In addition, the “time … to decrease to 25%” value in data set [4] (guinea-pigs) is 10.1 min. In addition, in data set [4], the ED50 turned out to be 0.034 ± 0.002 mg/kg, the ED90 is 0.048 ± 0.0027 mg/kg, the Clinical duration turned out to be 10.1 ± 1.32 min and the “Recovery 25%-75%” value is given as 2.4 ± 0.3 min. Also, the Onset time in data set [4] is 0.9 ± 0.18 min. Also, in data set [4] (guinea-pigs, in vivo), the “duration of action compared with reference substances” value is listed as “shorter than those of other reference substances with similar chemical structure” and the “onset of action compared with reference substances” value is recorded as “more rapid”.
“7',12dihydroxy-6,6dimethoxy-2,2',2trimethyltubocuraranium chloride hydrochloride [Tubocurarine chloride]”: the IC90 in data set [1] (setting [6]) is 1020 ± 10 nM; in data set [2] (guinea-pig, 0.1 Hz, 0.2 ms, supramaximal stimulus, mean ± SEM (n = 4)), 1330 ± 90 nM.
For the compound `CC(=O)O[C@H]1C[C@@H]2CC[C@@H]3[C@H](CC[C@@]4(C)[C@H]3C[C@H]([N+]3(C)CCCCC3)[C@@H]4OC(C)=O)[C@@]2(C)C[C@@H]1[N+]1(C)CCCCC1` [Pancuronium bromide, 1'-[3α,17β-bis(acetyloxy)-5α-androstane-2β,16β-diyl]bis[1-methylpiperidinium]dibromide], in data set [1] (Rattus norvegicus), the IC90 is 6360 ± 30 nM. For the same compound, the IC90 in data set [2] (Cavia porcellus) stood at 290 ± 10 nM. In the data set with vagus, the “inhibition of the decrease of blood pressure caused by vagal stimulation” value is on record as 50% and the “inhibition of the decrease of heart rate caused by vagal stimulation” value is 50%. Also, in data set [4] (guinea-pigs), the “time … to decrease to 25%” value is 45.6 min. Besides, in data set [4], the ED50 came to 0.01 ± 0.0011 mg/kg, the ED90 was determined as 0.015 ± 0.0019 mg/kg, the Clinical duration is 45.6 ± 5.68 min and the “Recovery 25%-75%” value stood at 14.8 ± 2.45 min. In data set [4], this compound had an Onset time of 1.1 ± 0.31 min.

A word on the ED50: it is the midpoint of the dose-response relation.
